Assay results taken from patent publication US20100331269A1, “TRITERPENES DERIVATIVES AND USES THEREOF AS ANTITUMOR AGENTS OR ANTI-INFLAMMATORY AGENTS” (priority 2006, published 2010).

Experiments:
[1] = test system: MDA-MB-231 human breast adenocarcinoma cells; experiment: Cytotoxicity, resazurin metabolism assay, MDA-MB-231; assay type: cell-based; conditions: mean ± SD
Excerpt: (§1) Human lung carcinoma (A-549), human colon adenocarcinoma (DLD-1), human normal fibroblasts (WS1), mice melanoma (B16-F1), Human glioma (U-251), Human hepatocellular carcinoma (HEP G2), Human prostate adenocarcinoma (PC-3), Human ovary teratocarcinoma metastatic (PA-1), Human breast adenocarcinona metastatic (MDA-MB-231), Human breast adenocarcinoma (MCF-7) and Human malignant melanoma (SK-MEL-2) cell lines were obtained from the American Type Culture Collection (ATCC). All cell lines were cultured in minimum essential medium containing Earle's salts and L-glutamine (Mediatech Cellgro, Va.), to which was added 10% fetal bovine serum (Hyclone), vitamins (1×), penicillin (100 I.U./mL) and streptomycin (100 μg/mL), essential amino acids (1×) and sodium pyruvate (1×) (Mediatech Cellgro, Va.). Cells were kept at 37° C. in a humidified environment containing 5% CO2.
(§2) Exponentially growing cells were plated in 96-well microplates (Costar, Corning Inc.) at a density of 5×10^3 cells per well in 100 μL of culture medium and were allowed to adhere for 16 hours before treatment. Increasing concentrations of each compound in DMSO (Sigma-Aldrich) were then added (100 μL per well) and the cells were incubated for 48 h. […] Cytotoxicity was assessed using resazurin (O'Brien, J. et al., Eur. J. Biochem. 2000, 267, 5421-5426) on an automated 96-well Fluoroskan Ascent F1™ plate reader (Labsystems) using excitation and emission wavelengths of 530 nm and 590 nm, respectively. Fluorescence was proportional to the cellular metabolic activity in each well. Survival percentage was defined as the fluorescence in experimental wells compared to that in control wells after subtraction of blank values. Each experiment was carried out three times in triplicata. IC50 results were expressed as mean±standard deviation.
(§3) Compounds presented in Table 5 below were also tested in the following tumour cell lines: U-251 (Human glioma), HEP G2 (Human hepatocellular carcinoma), PC-3 (Human prostate adenocarcinoma), PA-1 (Human ovary teratocarcinoma metastatic), MDA-MB-231 (Human breast adenocarcinona metastatic), MCF-7 (Human breast adenocarcinoma) and SK-MEL-2 (Human malignant melanoma).

[2] = test system: A-549 human lung carcinoma cells; experiment: Cytotoxicity, resazurin metabolism assay, A-549; assay type: cell-based; conditions: 48 h, mean ± SD
Excerpt: as §1, §2
(§4) The cytotoxicity of triterpenes (1-8) and corresponding glycosides (9-30) (Table 2 below) as well as of germanicane-type triterpenes and glycosides (31-44) (Table 3 below) was assessed towards human cancer (A-549, DLD-1), mouse melanoma (B16-F1) and human normal skin fibroblast (WS1) cell lines using the resazurin reduction test (RTT test) as previously described (O'Brien, J. et al., Eur. J. Biochem. 2000, 267, 5421-5426). Measurements of fluorescence were carried out after 48 continuous hours of contact between compounds and cells. Results presented in Tables 2 and 3 below express the concentration inhibiting 50% of the cell growth (IC50). Known for its activity against A-549, betulinic acid (3) was used as a positive control in this experimentation. […] The cytotoxic activity of some of these compounds was also assessed using the Hoechst DNA assay (Table 4 below).

[3] = test system: Hep G2 human hepatocellular carcinoma cells; experiment: Cytotoxicity, resazurin metabolism assay, Hep G2; assay type: cell-based; conditions: mean ± SD
Excerpt: as §1, §2, §3

[4] = test system: MCF-7 human breast adenocarcinoma cells; experiment: Cytotoxicity, resazurin metabolism assay, MCF-7; assay type: cell-based; conditions: mean ± SD
Excerpt: as §1, §2, §3

[5] = test system: SK-Mel-2 human melanoma cells; experiment: Cytotoxicity, resazurin metabolism assay, SK-Mel-2; assay type: cell-based; conditions: mean ± SD
Excerpt: as §1, §2, §3

[6] = test system: PC-3 human prostate adenocarcinoma cells; experiment: Cytotoxicity, resazurin metabolism assay, PC-3; assay type: cell-based; conditions: mean ± SD
Excerpt: as §1, §2, §3

U-251 human glioma cells = experiment: Cytotoxicity, resazurin metabolism assay, U-251; assay type: cell-based; conditions: mean ± SD
Excerpt: as §1, §2, §3

[7] = test system: DLD-1 human colorectal adenocarcinoma cells; experiment: Cytotoxicity, resazurin metabolism assay, DLD-1; assay type: cell-based; conditions: 48 h, mean ± SD
Excerpt: as §1, §2, §4

[8] = test system: WS-1 human normal skin fibroblasts; experiment: Cytotoxicity, resazurin metabolism assay, WS-1; assay type: cell-based; conditions: 48 h, mean ± SD
Excerpt: as §1, §2, §4

[9] = test system: PA-1 human ovary teratocarcinoma cells; experiment: Cytotoxicity, resazurin metabolism assay, PA-1; assay type: cell-based; conditions: mean ± SD
Excerpt: as §1, §2, §3

[10] = test system: B16-F1 mouse melanoma cells; experiment: Cytotoxicity, resazurin metabolism assay, B16-F1; assay type: cell-based; conditions: 48 h, mean ± SD
Excerpt: as §1, §2, §4

A-549 cells = experiment: Cytotoxicity, Hoechst DNA assay, A-549; assay type: cell-based, human; conditions: ± SD
Excerpt: as §1, §4

WS-1 cells = experiment: Cytotoxicity, Hoechst DNA assay, WS-1; assay type: cell-based, human; conditions: ± SD
Excerpt: as §1, §4

DLD-1 cells = experiment: Cytotoxicity, Hoechst DNA assay, DLD-1; assay type: cell-based, human; conditions: ± SD
Excerpt: as §1, §4

B16-F1 cells = experiment: Cytotoxicity, Hoechst DNA assay, B16-F1; assay type: cell-based, mouse; conditions: ± SD
Excerpt: as §1, §4

| SMILES | IC50 [1] [µM] | IC50 [2] [µM] | IC50 [3] [µM] | IC50 [4] [µM] | IC50 [5] [µM] | IC50 [6] [µM] | IC50 (U-251 human glioma cells) [µM] | IC50 [7] [µM] | IC50 [8] [µM] | IC50 [9] [µM] | IC50 [10] [µM] | IC50 (A-549 cells) [µM] | IC50 (WS-1 cells) [µM] | IC50 (DLD-1 cells) [µM] | IC50 (B16-F1 cells) [µM] |
| --- | --- | --- | --- | --- | --- | --- | --- | --- | --- | --- | --- | --- | --- | --- | --- |
| C=C(C)[C@@H]1CC[C@]2(C(=O)O)CC[C@]3(C)[C@H](CC[C@@H]4[C@@]5(C)CC[C@H](O[C@@H]6OC[C@@H](O)[C@H](O)[C@H]6O)C(C)(C)[C@@H]5CC[C@]43C)[C@@H]12 [Compound 30, 3-O-β-D-Xylopyranoside of betulinic acid] | 40 ± 4 | 14 ± 2 | 43 ± 3 | 23 ± 4 | 36 ± 4 | 46 ± 8 | 26 ± 6 | 19.2 ± 0.8 | 21 ± 1 | 7.9 ± 0.9 |  |  |  |  |  |
| C=C(C)C1CCC2(CO)CCC3(C)C(CCC4C5(C)CCC(OC6OC(C)C(O)C(O)C6O)C(C)(C)C5CCC43C)C12 [Compound 13, 3-O-α-L-Rhamnopyranoside of Betulin] | 33 ± 2 | 22 ± 3 | 11 ± 0.9 | 19 ± 4 | 110 ± 20 | 61 ± 6 | 170 ± 40 | 50 ± 10 | 33 ± 5 | 180 ± 30 | 18 ± 1 |  |  |  |  |
| CC1(C)CC[C@]23CC[C@]4(C)[C@H](CC[C@@H]5[C@@]6(C)CC[C@H](O[C@@H]7O[C@H](CO)[C@H](O)[C@H](O)[C@H]7O)C(C)(C)[C@@H]6CC[C@]54C)[C@H]2[C@H]1OC3 [Compound 36, 3-O-β-D-Galactopyranoside of Allobetulin] | 44 ± 4 | 30 ± 10 | 41 ± 10 | 60 ± 20 | 40 ± 3 | 45 ± 6 | 53 ± 4 | 42 ± 9 | 30 ± 9 | 45 ± 4 |  |  |  |  |  |
| C=C(C)[C@@H]1CC[C@]2(C(=O)OC)CC[C@]3(C)[C@H](CC[C@@H]4[C@@]5(C)CC[C@H](O)C(C)(C)[C@@H]5CC[C@]43C)[C@@H]12 [Compound 7, Methyl Betulinate] |  | 19 ± 3 |  |  |  |  |  | 25 ± 4 | 19 ± 2 |  | 26 ± 1 | 19 ± 2 | 19 ± 4 | 21 ± 1 | 15.7 ± 0.9 |
| CC1(C)CCC23CCC4(C)C(CCC5C6(C)CCC(OC7OC(CO)C(O)C(O)C7O)C(C)(C)C6CCC54C)C2C1OC3 [Compound 33, 3-O-β-D-Glucopyranoside of Allobetulin] | 41.2 ± 0.7 | 31 ± 2 | 44 ± 5 | 51 ± 2 | 37 ± 2 | 42 ± 8 | 46 ± 1 | 41.6 ± 0.9 | 45 ± 3 | 39 ± 2 |  |  |  |  |  |
| C=C(C)[C@@H]1CC[C@]2(C)CC[C@]3(C)[C@H](CC[C@@H]4[C@@]5(C)CC[C@H](O[C@@H]6O[C@H](CO)[C@@H](O)[C@H](O)[C@H]6O)C(C)(C)[C@@H]5CC[C@]43C)[C@@H]12 [Compound 9, 3-O-6-D-Glucopyranoside of lupeol] | 20.9 ± 0.6 | 14 ± 1 | 17.8 ± 0.2 | 16.4 ± 0.5 | 15.5 ± 0.6 | 30 ± 2 | 17.9 ± 0.7 | 14 ± 1 | 13.3 ± 0.5 | 13 ± 1 | 15 ± 0.7 | 22 ± 2 | 20 ± 2 | 19 ± 1 | 18 ± 2 |
| C=C(C)[C@@H]1CC[C@]2(CO)CC[C@]3(C)[C@H](CC[C@@H]4[C@@]5(C)CC[C@H](OC(C)=O)C(C)(C)[C@@H]5CC[C@]43C)[C@@H]12 [Compound 6, 3-Acetoxybetulin] |  | > 253 |  |  |  |  |  | > 253 | > 253 |  | > 253 | 90 ± 10 | > 180 | > 253 | 42 ± 6 |
| C=C(C)C1CCC2(C(=O)O)CCC3(C)C(CCC4C5(C)CCC(OC6OC(CO)C(O)C(O)C6O)C(C)(C)C5CCC43C)C12 [Compound 29, 3-O-β-D-Mannopyranoside of Betulinic Acid] | 21 ± 2 | 41 ± 4 | 26 ± 2 | 20 ± 2 | 4.7 ± 0.6 | 27 ± 3 | 6 ± 2 | 14.9 ± 0.5 | 16 ± 3 | 2.2 ± 0.2 |  |  |  |  |  |
| C=C(C)[C@@H]1CC[C@]2(CO)CC[C@]3(C)[C@H](CC[C@@H]4[C@@]5(C)CC[C@H](O)C(C)(C)[C@@H]5CC[C@]43C)[C@@H]12 [Compound 2, Betulin, reference compound] |  | 3.8 ± 0.09 |  |  |  |  |  | 6.6 ± 0.3 | 3.58 ± 0.07 |  | 13.8 ± 0.5 | 4.5 ± 0.3 | 5 ± 1 | 5.9 ± 0.6 | 10.3 ± 0.7 |
| C=C(C)[C@@H]1CC[C@]2(C(=O)O)CC[C@]3(C)[C@H](CC[C@@H]4[C@@]5(C)CC[C@H](O[C@@H]6O[C@H](CO)[C@@H](O)[C@H](O)[C@H]6O)C(C)(C)[C@@H]5CC[C@]43C)[C@@H]12 [Compound 21, 3-O-β-D-Glucopyranoside of Betulinic Acid] |  | > 178 |  |  |  |  |  | 32 ± 9 | > 178 |  | 49 ± 13 | > 178 | > 178 | 12 ± 3 | 17 ± 4 |
| C=C(C)[C@@H]1CC[C@]2(C(=O)OC)CC[C@]3(C)[C@H](CC[C@@H]4[C@@]5(C)CC[C@H](O[C@@H]6O[C@@H](C)[C@H](O)[C@@H](O)[C@H]6O)C(C)(C)[C@@H]5CC[C@]43C)[C@@H]12 [Compound 19, 3-O-α-L-Rhamnopyranoside of Methyl Betulinate] |  | 59 ± 3 |  |  |  |  |  | > 183 | 53 ± 2 |  | 55 ± 2 | 58 ± 2 | 65 ± 5 | > 150 | 46 ± 1 |
| C=C(C)C1CCC2(CO)CCC3(C)C(CCC4C5(C)CCC(OC6OCC(O)C(O)C6O)C(C)(C)C5CCC43C)C12 [Compound 14, 3-O-α-D-Arabinopyranoside of Betulin] | 49.2 ± 0.9 | 41 ± 3 | 38 ± 2 | 61 ± 7 | 54 ± 3 | 65 ± 6 | 40 ± 7 | 63 ± 8 | 59 ± 5 | 41 ± 5 | 38 ± 3 |  |  |  |  |
| C=C(C)[C@@H]1CC[C@]2(COC(C)=O)CC[C@]3(C)[C@H](CC[C@@H]4[C@@]5(C)CC[C@H](O)C(C)(C)[C@@H]5CC[C@]43C)[C@@H]12 [Compound 5, 28-Acetoxybetulin] |  | 75 ± 7 |  |  |  |  |  | 56 ± 4 | 44 ± 2 |  | 43 ± 2 | 49 ± 7 | 47 ± 2 | 46 ± 5 | 35 ± 1 |
| C=CCOC(=O)C12CCC(C(=C)C)C1C1CCC3C4(C)CCC(O)C(C)(C)C4CCC3(C)C1(C)CC2 (centres unmarked) [Compound 8, Allyl betulinate] |  | > 225 |  |  |  |  |  | > 225 | > 225 |  | > 225 | > 225 | > 225 | > 225 | > 225 |
| C=C(C)C1CCC2(CO)CCC3(C)C(CCC4C5(C)CCC(OC6OC(CO)C(O)C(O)C6O)C(C)(C)C5CCC43C)C12 [Compound 26, 3-O-β-D-Mannopyranoside of Betulin] | 9.1 ± 0.2 | 7.5 ± 0.1 | 8.3 ± 0.4 | 9.2 ± 0.4 | 8.8 ± 0.4 | 8.6 ± 0.4 | 8.3 ± 0.4 | 11 ± 0.5 | 5.3 ± 0.5 | 7.6 ± 0.4 |  |  |  |  |  |
